Key:
[1] = system: Staphylococcus aureus; assay: Decrease in Staphylococcus aureus viability on exposure to visible light in the presence of hematoporphyrin (FIG. 8); format: cell-based; conditions: hematoporphyrin at 0.1 pg/ml and 1 μg/ml, cells in stationary or logarithmic growth phase
Protocol: FIG. 8 is a plot where the experimental results relating to the decrease in Staphylococcus aureus viability on exposure to visible light in the presence of hematoporphyrin at 0.1 pg/ml (circles) and 1 μg/ml (squares) concentrations were plotted. Bacterial cells were either in the stationary (closed symbols) or in the logarithmic (open symbols) growth phase.

[2] = system: wild and antibiotics-resistant bacterial strains (e.g. Streptococcus and Staphylococcus strains), yeasts (e.g. Candida strains); assay: Phototoxicity of hematoporphyrin towards bacterial strains and yeasts; format: cell-based

hematoporphyrin
photosensitised inactivation of Staphylococcus aureus [1]: effectively this porphyrin photosensitises the inactivation | phototoxicity [2]: exhibited phototoxicity
